Data from patent US11388902B2, “Pesticidally active cyclopropyl methyl amide derivatives” (SYNGENTA PARTICIPATIONS AG, priority 2017, dated 2022).

Experiments:
Format in all cases: in vivo
[1] = test system: Diabrotica balteata (Corn Root Worm); experiment: Diabrotica balteata (corn root worm) on sprayed maize sprouts; conditions: 96 h, application rate of 200 ppm, L2 larvae, 4 days after infestation, in comparison to untreated samples, read-out: effect in at least one of the two categories (mortality or growth inhibition)
Procedure: Example B1: Diabrotica balteata (Corn Root Worm)
Maize sprouts placed onto an agar layer in 24-well microtiter plates were treated with aqueous test solutions prepared from 10′000 ppm DMSO stock solutions by spraying. After drying, the plates were infested with L2 larvae (6 to 10 per well). The samples were assessed for mortality and growth inhibition in comparison to untreated samples 4 days after infestation.

[2] = test system: Plutella xylostella (Diamond Back Moth); experiment: Plutella xylostella (diamond back moth) artificial diet test; conditions: 120 h, application rate of 200 ppm, L2 larvae, 5 days after infestation, in comparison to untreated samples, read-out: effect in at least one of the two categories (mortality or growth inhibition)
Procedure: Example B3: Plutella xylostella (Diamond Back Moth)
24-well microtiter plates with artificial diet were treated with aqueous test solutions prepared from 10′000 ppm DMSO stock solutions by pipetting. After drying, the plates were infested with L2 larvae (10 to 15 per well). The samples were assessed for mortality and growth inhibition in comparison to untreated samples 5 days after infestation.

[3] = test system: Thrips tabaci (Onion Thrips); experiment: Thrips tabaci (onion thrips) feeding/contact activity, sunflower leaf discs; conditions: foliar, 144 h, application rate of 200 ppm, thrips population of mixed ages, 6 days after infestation
Procedure: Example B6: Thrips tabaci (Onion Thrips) Feeding/Contact Activity
Sunflower leaf discs were placed on agar in 24-well microtiter plates and sprayed with aqueous test solutions prepared from 10′000 ppm DMSO stock solutions. After drying the leaf discs were infested with a thrips population of mixed ages. The samples were assessed for mortality 6 days after infestation.

[4] = test system: Tetranychus urticae (Two-Spotted Spider Mite); experiment: Tetranychus urticae (two-spotted spider mite) feeding/contact activity, bean leaf discs; conditions: foliar, 192 h, application rate of 200 ppm, 8 days after infestation, read-out: mortality on mixed population (mobile stages)
Procedure: Example B5: Tetranychus urticae (Two-Spotted Spider Mite):Feeding/Contact Activity
Bean leaf discs on agar in 24-well microtiter plates were sprayed with aqueous test solutions prepared from 10′000 ppm DMSO stock solutions. After drying the leaf discs were infested with a mite population of mixed ages. The samples were assessed for mortality on mixed population (mobile stages) 8 days after infestation.

[5] = test system: Spodoptera littoralis (Egyptian Cotton Leaf Worm); experiment: Spodoptera littoralis (Egyptian cotton leaf worm) cotton leaf disc test; conditions: foliar, 72 h, application rate of 200 ppm, L1 larvae, 3 days after infestation, in comparison to untreated samples, read-out: control (mortality, anti-feeding effect, or growth inhibition)
Procedure: Example B4: Spodoptera littoralis (Egyptian Cotton Leaf Worm)
Cotton leaf discs were placed onto agar in 24-well microtiter plates and sprayed with aqueous test solutions prepared from 10′000 ppm DMSO stock solutions. After drying the leaf discs were infested with five L1 larvae. The samples were assessed for mortality, anti-feeding effect, and growth inhibition in comparison to untreated samples 3 days after infestation. Control of Spodoptera littoralis by a test sample is given when at least one of the categories mortality, anti-feedant effect, and growth inhibition is higher than the untreated sample.

[6] = test system: Myzus persicae (Green Peach Aphid); experiment: Myzus persicae (green peach aphid) sucrose solution feeding test; conditions: 120 h, test rate of 12 ppm, 5 days after infestation
Source text: Example B2: Myzus persicae (Green Peach Aphid)
Test compounds prepared from 10′000 ppm DMSO stock solutions were applied by pipette into 24-well microtiter plates and mixed with sucrose solution. The plates were closed with a stretched Parafilm. A plastic stencil with 24 holes was placed onto the plate and infested pea seedlings were placed directly on the Parafilm. The infested plate was closed with a gel blotting paper and another plastic stencil and then turned upside down. The samples were assessed for mortality 5 days after infestation.

N#CC1(CNC(=O)c2ccc(C3=NOC(c4cc(Cl)cc(Cl)c4)(C(F)(F)F)C3)cn2)CC1 (racemic) [Compound D01, N-[(1-cyanocyclopropyl)methyl]-5-[5-(3,5-dichlorophenyl)-5-(trifluoromethyl)-4H-isoxazol-3-yl]pyridine-2-carboxamide]
≥ 80%: percent effect (mortality or growth inhibition) at 200 ppm [1] | percent effect (mortality or growth inhibition) at 200 ppm [2] | mortality at 200 ppm [3]

Cc1cc(C2=NO[C@@](c3cc(Cl)c(F)c(Cl)c3)(C(F)(F)F)C2)ccc1C(=O)NCC1(C#N)CC1 [Compound A01, N-[(1-cyanocyclopropyl)methyl]-4-[(5S)-5-(3,5-dichloro-4-fluoro-phenyl)-5-(trifluoromethyl)-4H-isoxazol-3-yl]-2-methyl-benzamide]
≥ 80%: percent effect (mortality or growth inhibition) at 200 ppm [1] | mortality at 200 ppm [4] | percent effect (mortality or growth inhibition) at 200 ppm [2] | percent control (mortality, anti-feedant effect or growth inhibition) at 200 ppm [5] | mortality at 200 ppm [3] | mortality at 12 ppm [6]

Cc1cc(C2=NOC(c3cc(Cl)cc(Cl)c3)(C(F)(F)F)C2)ncc1C(=O)NCC1(C#N)CC1 (racemic) [Compound D02, N-[(1-cyanocyclopropyl)methyl]-6-[5-(3,5-dichlorophenyl)-5-(trifluoromethyl)-4H-isoxazol-3-yl]-4-methyl-pyridine-3-carboxamide]
≥ 80%: percent effect (mortality or growth inhibition) at 200 ppm [1] | mortality at 200 ppm [4] | percent effect (mortality or growth inhibition) at 200 ppm [2] | percent control (mortality, anti-feedant effect or growth inhibition) at 200 ppm [5] | mortality at 200 ppm [3] | mortality at 12 ppm [6]

Cc1cc(C2=NO[C@@](c3cc(Cl)c(F)c(Cl)c3)(C(F)(F)F)C2)ccc1C(=O)NC(C)C1(C#N)CC1 (stereo partly drawn) [Compound E01, N-[1-(1-cyanocyclopropyl)ethyl]-4-[(5S)-5-(3,5-dichloro-4-fluoro-phenyl)-5-(trifluoromethyl)-4H-isoxazol-3-yl]-2-methyl-benzamide]
≥ 80%: percent effect (mortality or growth inhibition) at 200 ppm [2] | percent control (mortality, anti-feedant effect or growth inhibition) at 200 ppm [5] | mortality at 200 ppm [3]

CCOC(=O)N(CC1(C#N)CC1)C(=O)c1ccc(C2=NO[C@@](c3cc(Cl)c(F)c(Cl)c3)(C(F)(F)F)C2)cc1C [Compound F01, ethyl N-[(1-cyanocyclopropyl)methyl]-N-[4-[(5S)-5-(3,5-dichloro-4-fluoro-phenyl)-5-(trifluoromethyl)-4H-isoxazol-3-yl]-2-methyl-benzoyl]carbamate]
≥ 80%: percent effect (mortality or growth inhibition) at 200 ppm [1] | mortality at 200 ppm [4] | percent effect (mortality or growth inhibition) at 200 ppm [2] | percent control (mortality, anti-feedant effect or growth inhibition) at 200 ppm [5] | mortality at 200 ppm [3]

Cc1cc(C2=NO[C@@](c3cc(Cl)c(F)c(Cl)c3)(C(F)(F)F)C2)ccc1C(=O)NCC1(C(N)=S)CC1 [Compound B01, N-[(1-carbamothioylcyclopropyl)methyl]-4-[(5S)-5-(3,5-dichloro-4-fluoro-phenyl)-5-(trifluoromethyl)-4H-isoxazol-3-yl]-2-methyl-benzamide]
≥ 80%: percent effect (mortality or growth inhibition) at 200 ppm [1] | mortality at 200 ppm [4] | percent effect (mortality or growth inhibition) at 200 ppm [2] | percent control (mortality, anti-feedant effect or growth inhibition) at 200 ppm [5] | mortality at 200 ppm [3] | mortality at 12 ppm [6]

Cc1cc(C2=NO[C@@](c3cc(Cl)c(F)c(Cl)c3)(C(F)(F)F)C2)ccc1C(=O)NCC1(C(N)=O)CC1 [Compound C01, N-[(1-carbamoylcyclopropyl)methyl]-4-[(5S)-5-(3,5-dichloro-4-fluoro-phenyl)-5-(trifluoromethyl)-4H-isoxazol-3-yl]-2-methyl-benzamide]
≥ 80%: percent effect (mortality or growth inhibition) at 200 ppm [1] | mortality at 200 ppm [4] | percent effect (mortality or growth inhibition) at 200 ppm [2] | percent control (mortality, anti-feedant effect or growth inhibition) at 200 ppm [5] | mortality at 200 ppm [3] | mortality at 12 ppm [6]
